Square brackets hold non-standard residues; d marks the D form. Peptide text beside a SMILES is read from it. * marks the point of attachment. DOTA = O=C(O)CN1CCN(CC(=O)O)CCN(CC(=O)*)CCN(CC(=O)O)CC1; Gly(N-(3-F-4-Me-benzyl)) = Cc1ccc(CNCC(=O)*)cc1F; Api(1-amidino) = N=C(N)N1CCC(N)(C(=O)O)CC1; Hydrocinnamoyl(4-I) = O=C(CCc1ccc(I)cc1)*; 2Nal = N[C@@H](Cc1ccc2ccccc2c1)C(=O)O; d2Nal = N[C@H](Cc1ccc2ccccc2c1)C(=O)O; NBzl(4-I)Gly = O=C(O)CNCc1ccc(I)cc1; 4Pal = N[C@@H](Cc1ccncc1)C(=O)O; 4Amb = NCc1ccc(C(=O)O)cc1; Api = NC1(C(=O)O)CCNCC1; PEG2 = NCCOCCOCCC(=O)O; Ahx = NCCCCCC(=O)O; azaGly = NNC(=O)O; βAla = NCCC(=O)O
target: human kisspeptin receptor (Homo sapiens (Human), UniProt Q969F8); test: Human KISS1R binding assay (membrane competition binding); settings: 90 min at room temperature; competition with 0.2 nM [125I]-metastin (45-54); Flp-In T-Rex 293 kisspeptin membranes; metal complexes nonradioactive Ga, In, Lu; read-out: hKiSSR Binding Ki (90 min)
Sequence (Q969F8 whole entry): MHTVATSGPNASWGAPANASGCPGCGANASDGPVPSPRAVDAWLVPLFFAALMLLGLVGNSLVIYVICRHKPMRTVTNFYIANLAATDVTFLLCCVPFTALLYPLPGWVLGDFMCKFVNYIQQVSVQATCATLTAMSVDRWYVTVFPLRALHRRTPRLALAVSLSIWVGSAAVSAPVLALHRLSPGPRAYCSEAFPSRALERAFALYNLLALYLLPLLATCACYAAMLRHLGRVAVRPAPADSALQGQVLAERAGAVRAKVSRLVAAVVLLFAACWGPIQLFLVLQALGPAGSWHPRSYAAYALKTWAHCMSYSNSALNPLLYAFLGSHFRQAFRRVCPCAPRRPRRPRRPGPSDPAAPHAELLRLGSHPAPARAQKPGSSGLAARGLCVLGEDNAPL
Outline: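 Membranes from tetracycline-induced (48 h) Flp-In T-Rex 293 cells expressing receptor, 5–10 μg, incubated 90 min at room temperature with 0.2 nM [125I]-metastin (45-54) and competitor (typically 0–10,000 nM) in Tris/Mg/Ca/EGTA/0.1% BSA, pH 7.4. Filtration, washing, counting; Ki by non-linear regression.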

Structure (SMILES)	Ki [nM]
Cc1ccc(CNCC(=O)N2CCC(NC(=O)[C@H](CC(C)C)NC(=O)NNC(=O)[C@H](Cc3ccccc3)NC(=O)[C@@H](CC(N)=O)NC(=O)[C@@H](CCC(=O)O)NC(=O)[C@@H](CCC(=O)O)NC(=O)[C@@H](CC(N)=O)NC(=O)[C@@H](CC(N)=O)NC(=O)CCNC(=O)CN3CCN(CC(=O)O)CCN(CC(=O)O)CCN(CC(=O)O)CC3)(C(=O)N[C@@H](Cc3c[nH]c4ccccc34)C(N)=O)CC2)cc1F [Compound 15] ({DOTA-βAla}-[dN][dN][dE][dE][dN]F[azaGly]L[Api](Gly(N-(3-F-4-Me-benzyl)))W-NH2)	> 100
Cc1ccc(CNCC(=O)N2CCC(NC(=O)[C@H](CC(C)C)NC(=O)NNC(=O)[C@H](Cc3ccccc3)NC(=O)c3ccc(CNC(=O)CCCCCNC(=O)CN4CCN(CC(=O)O)CCN(CC(=O)O)CCN(CC(=O)O)CC4)cc3)(C(=O)N[C@@H](Cc3c[nH]c4ccccc34)C(N)=O)CC2)cc1F [Compound 22] ({DOTA-Ahx-4Amb}-F[azaGly]L[Api](Gly(N-(3-F-4-Me-benzyl)))W-NH2)	< 10
CC(C)C[C@H](NC(=O)NNC(=O)[C@H](Cc1ccccc1)NC(=O)CCCCCNC(=O)[C@H](Cc1ccc2ccccc2c1)NC(=O)[C@@H](Cc1ccc(O)cc1)NC(=O)CN1CCN(CC(=O)O)CCN(CC(=O)O)CCN(CC(=O)O)CC1)C(=O)NC1(C(=O)N[C@@H](Cc2c[nH]c3ccccc23)C(N)=O)CCN(C(=N)N)CC1 [Compound 287] ({DOTA}-[dY][2Nal][Ahx]F[azaGly]L[Api(1-amidino)]W-NH2)	10 to 100
CC(C)C[C@H](NC(=O)NNC(=O)[C@H](Cc1ccccc1)NC(=O)[C@@H](NC(=O)[C@H](CC(N)=O)NC(=O)[C@@H](Cc1ccc2ccccc2c1)NC(=O)[C@@H](Cc1ccc(O)cc1)NC(=O)CCCCCNC(=O)CN1CCN(CC(=O)O)CCN(CC(=O)O)CCN(CC(=O)O)CC1)[C@@H](C)O)C(=O)NC1(C(=O)N[C@H](Cc2c[nH]c3ccccc23)C(N)=O)CCN(C(=O)CNCc2ccc(I)cc2)CC1 [Compound 371] ({DOTA-Ahx}-[dY][d2Nal]NTF[azaGly]L[Api](NBzl(4-I)Gly)[dW]-NH2)	< 10

Now from value to molecule:

Ki [nM]	Structure (SMILES)
< 10	CC(C)C[C@H](NC(=O)NNC(=O)[C@H](Cc1ccccc1)NC(=O)[C@@H](NC(=O)[C@H](CC(N)=O)NC(=O)[C@H](CCCCNC(=O)CN1CCN(CC(=O)O)CCN(CC(=O)O)CCN(CC(=O)O)CC1)NC(=O)[C@@H](Cc1ccc(O)cc1)NC(=O)CCOCCOCCNC(=O)CCc1ccc(I)cc1)[C@@H](C)O)C(=O)NC1(C(=O)N[C@@H](Cc2ccc(O)cc2)C(N)=O)CCN(C(=N)N)CC1 [Compound 324] ({Hydrocinnamoyl(4-I)-PEG2}-[dY]K(DOTA)NTF[azaGly]L[Api(1-amidino)]Y-NH2)
< 10	Cc1ccc(CNCC(=O)N2CCC(NC(=O)[C@H](CC(C)C)NC(=O)NNC(=O)[C@H](Cc3ccccc3)NC(=O)CCCCCNC(=O)[C@H](Cc3ccc4ccccc4c3)NC(=O)[C@H](Cc3ccc(O)cc3)NC(=O)CNC(=O)CN3CCN(CC(=O)O)CCN(CC(=O)O)CCN(CC(=O)O)CC3)(C(=O)N[C@@H](Cc3c[nH]c4ccccc34)C(N)=O)CC2)cc1F [Compound 307] ({DOTA}-GY[2Nal][Ahx]F[azaGly]L[Api](Gly(N-(3-F-4-Me-benzyl)))W-NH2)
< 10	CC(C)C[C@H](NC(=O)NNC(=O)[C@H](Cc1ccccc1)NC(=O)[C@@H](NC(=O)[C@H](CC(N)=O)NC(=O)[C@H](Cc1ccc2ccccc2c1)NC(=O)[C@@H](Cc1ccc(O)cc1)NC(=O)CCCCCNC(=O)CN1CCN(CC(=O)O)CCN(CC(=O)O)CCN(CC(=O)O)CC1)[C@@H](C)O)C(=O)NC1(C(=O)N[C@@H](Cc2ccncc2)C(N)=O)CCN(C(=N)N)CC1 [Compound 275] ({DOTA-Ahx}-[dY][2Nal]NTF[azaGly]L[Api(1-amidino)][4Pal]-NH2)

From US20250312499A1, “KISSPEPTIN RECEPTOR (KISS1R) TARGETED THERAPEUTICS AND USES THEREOF” (priority 2024, published 2025)
